According to patent US20040156854A1, “Methods for the identification, assessment, and treatment of patients with proteasome inhibition therapy” (priority 2002, published 2004):

Legend:
[1] = set-up: species or system human; settings: in vivo
Description: (§1) A multicenter, open-label, non-randomized Phase 2 trial was conducted, wherein enrolled were patients with relapsed myeloma that was refractory to therapy. Patients were treated with 1.3 mg of bortezomib per square meter of body surface area, twice weekly for two weeks, followed by one week without treatment, for up to eight cycles (24 weeks).
(§2) Statistical analysis focused on the need to estimate response rates within specified limits of accuracy in order to determine if either of the two dose levels 1.0 or 1.3 mg/m^2/dose alone or in combination with dexamethasone are sufficiently efficacious to warrant further clinical study. This study was noncomparative in nature; therefore efficacy comparisons between the two doses of bortezomib were not performed. In addition, this study provided safety data that helped to characterize the potential toxicity of treatment at the two evaluated dose levels for up to eight cycles of therapy.
Over 80% of the 78 patients completed 2 or more cycles of treatment, 62% completed 4 or more cycles, and 27% completed 8 cycles.

[2] = system: OVCAR-3 and RPMI8226 resistant sub-clones; experiment: Bortezomib resistant tumor cell lines generated by repeated dosing: resistance to bortezomib; format: cell-based; settings: sub-clones selected after dosing with 3-5 times the LD50; vs parental lines
Description: In order to better understand the specific mechanism(s) by which proteasome inhibitors exert their apoptotic effects, as well as to elucidate mechanisms by which those effects may be subverted, bortezomib resistant tumor cell lines were generated. […] The drug was then removed and surviving cells were allowed to recover for 24 to 72 hours. This process was then repeated for multiple rounds with the bortezomib dose doubled each time. After cells had been dosed with 3-5 times the LD50, several individual cell lines were sub-cloned from single cell colonies. […] This strategy was applied to both ovarian tumor cell lines (OVCAR-3) and myeloma tumor cell lines (RPMI8226) and multiple sub-clones were characterized. The resistant cell lines were then subject to gene expression profiling using the Affymetrix U133 microarray. A comparison of genes differentially expressed in sensitive parental (S) versus resistant sub-clones (R) highlighted several genes that were also identified in analysis of sensitive and resistant myeloma biopsies. The number identified in Table 8 corresponds to the marker number identification in Table 1. Such results not only highlight a potential relationship between expression of these genes and bortezomib sensitivity, but also support the validity of methods used to define response genes in clinical samples.

[3] = system: human tumor xenograft models; settings: cited from earlier work
[4] = system: relapsed/refractory multiple myeloma; experiment: Open-label Phase II study of bortezomib in relapsed, refractory myeloma: IRC confirmed response (Blade criteria); format: in vivo, human
Description: An Open-Label Phase II Study of Bortezomib in Patients with Myeloma Who Have Relapsed Following Front-Line Therapy and are Refractory to their Most Recent Therapy
as §1, §2
A formal statistical analysis plan was developed and finalized prior to database lock. The primary efficacy analyses were performed on the intent-to-treat (ITT) population. The primary efficacy analysis were performed on the rates of responders, where a responder was defined as a CR, PR, or MR using the criteria prospectively established in Table C. Two-sided 90% confidence limits on proportions of responders in each dose group were established, corresponding to a 95% one-sided lower limit.
Based on the criteria reported by Kraut et al., J. Clin. Oncol. 16(2): 589-592 (1998) and Blade et al., Br. J. Haematol. 102(5): 1115-1123 (1998). In patients with CR, bone marrow was analyzed using PCR for verification of CR at the molecular level.
The Independent Review Committee (IRC) evaluation of confirmed response to treatment with bortezomib alone is provided in Table D; further categorization of response for those patients who experienced partial remission is provided in Table E. This independent panel panel of three medical oncologists reviewed all data for 193 evaluable patients in the trial and assigned response using Blade criteria (Table C). […] An additional 46 (24%) of patients had evidence for stable disease (NC, no change) in response to bortezomib alone, which reflects an improvement in status for these patients who were progressing at the time of study entry. Based on the IRC assessment, 38 (20%) of the 193 patients had progressive disease and an additional 42 patients (22%) were considered not evaluable for response by the IRC. […] See Richardson PG, et al., New Eng. J. Med.; 348: 2609-17 (2003).

[5] = IRC assessment, bortezomib alone, N = 193
[6] = IRC confirmed, bortezomib alone, N = 193

CC(C)C[C@H](NC(=O)[C@H](Cc1ccccc1)NC(=O)c1cnccn1)B(O)O [bortezomib, N-pyrazinecarbonyl-L-phenylalanine-L-leucineboronic acid]
tolerability of the dose [1]: well tolerated
resistance to bortezomib of resistant sub-clones [2]: 5-10 fold
antitumor activity [3]: demonstrated antitumor activity
CR+PR rate ([4]; 202 patients enrolled, PS-341 alone, prior to added dexamethasone): 27%
overall response rate to PS-341 alone ([4]; 202 patients enrolled, prior to any patients receiving added dexamethasone): 35%
Not Evaluable for response, number of patients [4, 5]: 42 patients
Not Evaluable for response, percent of patients [4, 5]: 22%
Complete + Partial + Minor Responses, number of patients ([4]; IRC confirmed, bortezomib alone, 1.3 mg/m2 twice weekly, N = 193): 67 patients
Complete + Near Complete Remissions (NCR), number of patients [4, 6]: 19 patients
Complete + Near Complete Remissions (NCR), percent of patients [4, 6]: 10%
Complete + Partial + Minor Responses, percent of patients [4, 6]: 35%
Complete + Partial Remissions, number of patients [4, 6]: 53 patients
Complete + Partial Remissions, percent of patients [4, 6]: 27%
Complete Remission (CR), number of patients [4, 6]: 19 patients
Complete Remission (CR), percent of patients [4, 6]: 4%
Minor Response (MR), number of patients [4, 6]: 14 patients
Minor Response (MR), percent of patients [4, 6]: 5%
No Change (stable disease), number of patients [4, 6]: 46 patients
No Change (stable disease), percent of patients [4, 6]: 27%
Partial Remission (PR), number of patients [4, 6]: 34 patients
Partial Remission (PR), percent of patients [4, 6]: 23%
Progressive Disease, number of patients [4, 6]: 38 patients
Progressive Disease, percent of patients [4, 6]: 20%
